Measured values as given in ChEMBL document CHEMBL1201862, “PubChem BioAssay data set” (2004).
Where a name gives a salt, the structure may show the parent alone. Active and inactive are the calls of the source.

How the values were obtained:
[1] = biological target: 5-hydroxytryptamine receptor 2A (Mus musculus, UniProt P35363); format: functional, cell-based;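 also: CHO-K1 cells with tagged receptor and beta-arrestin; agonist potency measured as compound-induced activation of the receptor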
Mu-type opioid receptor = Mu-type opioid receptor (Homo sapiens, UniProt P35372); format: functional, cell-based;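 also: U2OS cells with beta-arrestin recruitment to OPRM1 by beta-gal complementation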
[2] = viability loss in HEK293T cells – cell-based, cherry-picks, cytotoxicity control for HIV Vif inhibitor project, dose response (AID 652208); format: functional
Cytochrome P450 1A2 = biological target: T1, Cytochrome P450 1A2 (Homo sapiens, UniProt P05177);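 also: PubChem cytochrome P450 panel assay, CYP1A2 panel member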
T1 sequence (P05177 whole entry): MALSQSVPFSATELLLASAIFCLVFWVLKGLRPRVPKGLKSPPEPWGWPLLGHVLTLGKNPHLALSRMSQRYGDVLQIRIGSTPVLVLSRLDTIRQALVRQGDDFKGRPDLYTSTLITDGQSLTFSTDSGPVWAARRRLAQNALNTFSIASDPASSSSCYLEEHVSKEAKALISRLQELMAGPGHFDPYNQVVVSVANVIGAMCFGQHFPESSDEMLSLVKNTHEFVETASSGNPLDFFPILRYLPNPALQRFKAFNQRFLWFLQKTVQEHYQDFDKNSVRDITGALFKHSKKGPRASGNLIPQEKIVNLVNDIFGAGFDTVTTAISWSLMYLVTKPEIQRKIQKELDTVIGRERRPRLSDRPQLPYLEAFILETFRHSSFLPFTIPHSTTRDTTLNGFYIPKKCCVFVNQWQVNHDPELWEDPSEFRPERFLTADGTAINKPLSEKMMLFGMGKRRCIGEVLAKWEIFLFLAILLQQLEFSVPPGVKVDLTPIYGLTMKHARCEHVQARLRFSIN

Cytochrome P450 3A4 = Cytochrome P450 3A4 (Homo sapiens, UniProt P08684);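 also: CYP3A4 tested as one member of a cytochrome P450 panel screen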
[3] = potency of ADAM10 substrate cleavage blockers – biochemical, QFRET, dose response (AID 743254);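 also: ADAM10 enzyme with the DM2 quenched FRET peptide as substrate; EDANS fluorescence gain as the protease cuts the substrate; inhibitor potency against ADAM10 proteolytic activity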
[4] = Luminescence Cell-Based Dose Confirmation HTS to Identify Activators of 5'UTR Stem-Loop Driven Alpha-Synuclein mRNA Translation in H4 Neuroglioblastoma Cells. [Related pubchem assays: 1829 (Project Summary), 1814 (Primary HTS)]; format: functional
H4 = test: Luminescence Cell-Based Dose Response HTS to Identify Activators of 5'UTR Stem-Loop Driven Prion Protein mRNA Translation in H4 Neuroglioblastoma Cells. [Related pubchem assays: 1829 (Project Summary), 1814 (Primary HTS)]; format: functional; settings: Homo sapiens
[5] = Luminescence Cell-Based Dose Response HTS to Identify Activators of Luciferase Translation or Activity in H4 […] Cells. [Related pubchem assays: 1829 (Project Summary), 1814 (Primary HTS)]; format: functional
cells [6] = format: functional, cell-based
[7] = biological target: T2, Nuclear receptor subfamily 0 group B member 1 (Homo sapiens, UniProt P51843); format: functional, cell-based;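 also: HEK293T cells transfected with SF-1 and DAX-1 plus StAR promoter luciferase reporter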
T2 sequence (P51843 whole entry): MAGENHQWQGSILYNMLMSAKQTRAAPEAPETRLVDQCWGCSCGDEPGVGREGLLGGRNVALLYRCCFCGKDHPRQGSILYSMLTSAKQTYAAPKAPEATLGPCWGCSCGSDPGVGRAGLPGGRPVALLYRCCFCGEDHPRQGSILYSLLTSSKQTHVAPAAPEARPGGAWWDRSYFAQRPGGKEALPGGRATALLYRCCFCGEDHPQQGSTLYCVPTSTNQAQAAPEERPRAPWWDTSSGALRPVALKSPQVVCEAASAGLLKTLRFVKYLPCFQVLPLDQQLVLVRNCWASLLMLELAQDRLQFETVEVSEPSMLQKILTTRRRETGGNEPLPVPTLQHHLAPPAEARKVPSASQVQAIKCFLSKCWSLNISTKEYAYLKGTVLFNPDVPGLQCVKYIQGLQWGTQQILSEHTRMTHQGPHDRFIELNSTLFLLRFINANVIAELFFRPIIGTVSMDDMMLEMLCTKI

[8] = biological target: SWI/SNF-related matrix-associated actin-dependent regulator of chromatin subfamily A member 2 (Homo sapiens, UniProt P51531); test: Luminescence-based cell-based high throughput dose response assay to identify activators of the function of SWI/SNF related, matrix associated, actin dependent regulator of chromatin, subfamily a, member 2 (SMARCA2, BRM).; format: functional
[9] = Counterscreen for activators of the function of SWI/SNF related, matrix associated, actin dependent regulator of chromatin, subfamily a, member 2 (SMARCA2, BRM): Luminescence-based cell-based high throughput dose response assay to identify non-selective compounds using the VP16 reporter assay.; format: functional
Large T antigen = Large T antigen (Simian virus 40, UniProt P03070); format: functional, Betapolyomavirus macacae;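 also: Confirmatory-stage PubChem screen for compounds that inhibit SV40 T antigen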
[10] = Trypanosoma cruzi growth suppression in host cells – NIH3T3 host cells, beta-gal luminescence, confirmation (AID 2044); format: functional, cell-based;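 also: intracellular parasites grown in NIH/3T3 mouse fibroblasts as host cells; luminescent beta-galactosidase reporter signal from transgenic T. cruzi replicating inside host cells; inhibitors lower the luminescence signal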
[11] = biological target: T3, Mitochondrial peptide methionine sulfoxide reductase (Bos taurus, UniProt P54149); test: Absorbance-based biochemical high throughput dose response assay for activators of Methionine sulfoxide reductase A (MsrA).; format: functional
T3 sequence (P54149 whole entry): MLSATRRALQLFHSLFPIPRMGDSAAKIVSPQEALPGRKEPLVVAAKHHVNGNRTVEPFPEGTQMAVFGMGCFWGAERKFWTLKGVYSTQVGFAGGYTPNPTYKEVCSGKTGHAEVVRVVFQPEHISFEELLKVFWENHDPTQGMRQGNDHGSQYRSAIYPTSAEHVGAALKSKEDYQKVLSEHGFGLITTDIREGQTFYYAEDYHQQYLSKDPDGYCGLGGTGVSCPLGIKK

Vero = test: cells; format: functional; settings: Chlorocebus sabaeus
[12] = NIH3T3 cell viability loss – ATP luminescence, mouse fibroblasts, counter-screen, dose response (AID 2010); format: functional, cell-based;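 also: cells exposed to compound for about 90 hours before reading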
[13] = biological target: Glucose-6-phosphate 1-dehydrogenase (Homo sapiens, UniProt P11413); test: inhibition of Homo sapiens G6PD, dose series – biochemical, fluorescence, selectivity assay for P. falciparum G6PD inhibitor project, dose response (AID 504792); format: functional
[14] = viability loss in human Jurkat cells – cell-based, luminescence, cytotoxicity control for P. falciparum gametocyte viability project, dose response (AID 1117277); format: functional;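 also: potency reflects loss of cellular ATP meaning fewer viable cells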
[15] = viability inhibitors of stage V gametocytes – luminescence, dose response (AID 1117278); format: functional, cell-based;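 also: gametocytes exposed to compound for 24 hours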
INS1 = test: INS-1E survival protection against cytokine death – cell-based, luminescence, retest, dose response (AID 449756); format: functional; settings: Rattus norvegicus;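 also: cell death triggered by IL-1 beta plus TNF-alpha plus IFN-gamma mixture; protective hits raise ATP signal compared with cytokine alone wells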
[16] = biological target: T4, COUP transcription factor 2 (Homo sapiens, UniProt P24468); test: Luminescence-based cell-based high throughput dose response assay to identify inhibitors of COUP-TFII (NR2F2).; format: functional;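 also: HEK293 cells transiently cotransfected with COUP-TFII expression vector and reporter; luciferase reporter luminescence driven by COUP-TFII from the pX2-168 reporter plasmid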
T4 sequence (P24468 whole entry): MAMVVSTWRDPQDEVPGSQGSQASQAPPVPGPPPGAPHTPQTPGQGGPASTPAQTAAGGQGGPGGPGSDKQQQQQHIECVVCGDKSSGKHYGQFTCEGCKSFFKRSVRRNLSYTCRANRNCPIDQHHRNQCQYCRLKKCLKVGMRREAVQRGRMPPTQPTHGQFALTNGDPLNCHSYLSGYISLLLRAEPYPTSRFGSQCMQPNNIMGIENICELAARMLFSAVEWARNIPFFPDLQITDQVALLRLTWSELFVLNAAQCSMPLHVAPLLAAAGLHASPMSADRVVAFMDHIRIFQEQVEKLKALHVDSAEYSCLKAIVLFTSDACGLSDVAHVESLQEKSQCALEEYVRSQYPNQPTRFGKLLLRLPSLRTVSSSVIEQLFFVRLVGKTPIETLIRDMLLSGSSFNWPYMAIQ

[17] = biological target: T5, Heat shock factor protein 1 (Mus musculus, UniProt P38532); test: decrease of HSF1-responsive luciferase luminescence – cell-based, NIH3T3, dose retest, confirmation (AID 2382); format: functional;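 also: NIH3T3 fibroblasts with HSF1-driven luciferase reporter stressed by proteasome inhibitor MG132; luminescence from HSF1-driven luciferase expression after 8 hours of MG132 stress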
T5 sequence (P38532 whole entry): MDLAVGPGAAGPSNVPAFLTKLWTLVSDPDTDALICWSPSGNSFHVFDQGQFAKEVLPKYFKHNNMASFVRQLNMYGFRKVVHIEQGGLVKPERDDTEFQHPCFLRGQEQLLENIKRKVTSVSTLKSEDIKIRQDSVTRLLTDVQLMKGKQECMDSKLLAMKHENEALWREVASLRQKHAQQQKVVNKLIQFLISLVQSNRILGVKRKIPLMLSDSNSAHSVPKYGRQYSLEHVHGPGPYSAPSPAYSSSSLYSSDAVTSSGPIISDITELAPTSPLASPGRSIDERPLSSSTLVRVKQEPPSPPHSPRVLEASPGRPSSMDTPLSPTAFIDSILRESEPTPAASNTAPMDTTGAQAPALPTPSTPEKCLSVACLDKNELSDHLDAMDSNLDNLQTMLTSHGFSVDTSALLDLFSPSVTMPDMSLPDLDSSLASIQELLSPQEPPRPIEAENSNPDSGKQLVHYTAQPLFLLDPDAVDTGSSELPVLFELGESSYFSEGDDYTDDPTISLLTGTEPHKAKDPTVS

Major prion protein = Major prion protein (Homo sapiens, UniProt P04156); format: functional, cell-based
cells [18] = test: cells
[19] = biological target: Peroxisome proliferator-activated receptor gamma/Nuclear receptor coactivator 3 (Homo sapiens, UniProt P37231); test: TR-FRET dose response biochemical High Throughput Screening assay for agonists of the steroid receptor coactivator 3 (SRC-3) recruitment by the peroxisome proliferator-activated receptor gamma (PPAR gamma): non-selective agonists. [Related pubchem assays: 1301 (Confirmation screen.), 1048 (Primary screen.)]; format: functional
[20] = biological target: Peroxisome proliferator-activated receptor gamma/Nuclear receptor coactivator 2 (Homo sapiens, UniProt P37231); test: (§1) TR-FRET dose response biochemical High Throughput Screening assay for agonists of the steroid receptor coactivator 2 (SRC-2) recruitment by the peroxisome proliferator-activated receptor gamma (PPAR gamma): non-selective agonists. [Related pubchem assays: 1297, 1032 ]; format: functional
[21] = biological target: Peroxisome proliferator-activated receptor gamma/Nuclear receptor coactivator 1 (Homo sapiens, UniProt P37231); test: as §1, with “1 (SRC-1)” for “2 (SRC-2)”, “assays (depositor defined):AID1300, AID1808, AID504735, AID631]” for “assays: 1297, 1032 ]”; format: protein assay
[22] = viability loss in LCL cells – cell-based, plate reader, dry powder, set 2, cytotoxicity control, dose response (AID 624367); format: functional
Fatty acid synthase = Fatty acid synthase (Homo sapiens, UniProt P49327); test: inhibition of human FAS-TE enzyme activity – biochemical, endpoint fluorescence intensity, powder samples, SAR follow-up (AID 652164); format: functional

## CCCN(CCc1ccccc1)C1CCc2c(O)cccc2C1 (stereo unspecified)
[1]
  EC50: 0.0038 µM (active)
Mu-type opioid receptor
  EC50: 92.6 µM (inactive)

## Cc1nn(Cc2c(Cl)cccc2Cl)c(C)c1NC(=O)c1cnn2c(C(F)F)cc(-c3ccccc3)nc12
[2]
  AC50: 26 µM (active)
Cytochrome P450 1A2
  AC50: 31.6 µM (inconclusive)
Cytochrome P450 3A4
  AC50: inconclusive

## CCc1ccc(-c2cn(C3CCCCC3)c(S)n2)cc1
[3]
  IC50: > 69.5 µM (inactive)
[4]
  EC50: 67.1 µM (active)
H4
  EC50: > 60 µM (not active)
[5]
  EC50: > 120 µM (not active)

## COc1ccc2oc(C(=O)NCC3CCCO3)c(C)c2c1 (stereo unspecified)
Cells [6]
  IC50: > 67.6 µM (inactive)
[7]
  IC50: > 67.6 µM (inactive)

## O=C(COC(=O)c1nc(Cl)c(Cl)c(Cl)c1Cl)c1ccc[nH]1
[8]
  EC50: > 91.1 µM (inactive)
[9]
  EC50: > 91.1 µM (inactive)

## O=c1[nH]sc2cc(F)ccc12
Large T antigen
  IC50: 33.3 µM (active)
[10]
  EC50: 0.202 µM (active)
[8]
  EC50: > 91.1 µM (inactive)
[11]
  EC50: > 104 µM (inactive)
Vero
  CC50: > 25 µM (active)
[9]
  EC50: > 91.1 µM (inactive)
[12]
  EC50: 16.1 µM (active)
[13]
  IC50: > 80 µM (inactive)
[14]
  IC50: 22.2 µM (inactive)
[15]
  IC50: > 36.3 µM (inactive)

## CC(C)OCCCNc1[nH]cnc2c3cc(F)ccc3nc1-2
[2]
  AC50: > 52 µM (inactive)
INS1
  AC50: 1.63 µM (active)
[16]
  IC50: 6.62 µM (active)

## COc1nc(-c2ccccc2)c2cc(Br)ccc2n1
[17]
  EC50: > 195 µM (not active)
Major prion protein
  IC50: 5.53 µM (active)
Cells [18]
  IC50: > 138 µM (inactive)

## C#CCn1/c(=N/C(=O)c2ccc(Br)s2)sc2cccc(OC)c21
[19]
  EC50: 18.1 µM (not active)
Major prion protein
  IC50: 2.6 µM (active)
Cells [18]
  IC50: 48.6 µM (inactive)
[20]
  EC50: 10.6 µM (not active)
[21]
  EC50: 10.3 µM (inactive)

## Cc1noc(C)c1-c1ccc(C(=O)Nc2ccccc2)c2occc12
Cells [6]
  IC50: > 67.5 µM (inactive)
[7]
  IC50: > 2.5 µM (active)

## CN1C(=O)c2cc(NC(=O)c3ccc(C(F)(F)F)cc3)ccc2OC[C@H]2O[C@@H](CC(=O)NC3Cc4ccccc4C3)CC[C@H]21
[22]
  AbsAC35: 40.05 µM

## CN(C)S(=O)(=O)c1ccc(-c2csc(NC(=O)C3CCCC3)n2)cc1
Fatty acid synthase
  IC50: 1.55 µM (active)

## CN(C)S(=O)(=O)c1ccc(-c2csc(NC(=O)C3CC3)n2)cc1
Fatty acid synthase
  IC50: 1.23 µM (active)

## CNC[C@H](O)c1cccc(O)c1 [PHENYLEPHRINE HYDROCHLORIDE]
[1]
  EC50: 19.3 µM (inactive)
Mu-type opioid receptor
  EC50: 92.4 µM (inactive)
